Columns and labels:
[1] = molecular target: T1, Recombinant human HDAC1 (Homo sapiens, UniProt Q13547); test: HDAC-Glo I/II assay, HDAC1; format: biochemical; settings: for IC50: Class I HDAC, compounds reduced by TCEP prior to assay, read-out: IC50 of HDAC1; for Class I selectivity Ratio HDAC 1/HDAC8 / Class I vs. Class IIa Ratio HDAC 1/HDAC6: ratio of IC50 values
T1 construct: purchased BPS Bioscience Inc
Experimental: (§1) The purified compounds of all fragments and natural product derivatives were evaluated for inhibitory effects on three different classes of HDAC proteins (class I, IIa, and IIb). […] All activity was determined by using a fluorescence-based in vitro assay. Class I HDAC proteins that were evaluated were HDAC1, HDAC2, HDAC3, HDAC8, HDAC4, and HDAC6. Class IIa HDAC protein were HDAC4 and the Class IIb HDAC protein were HDAC6.
(§2) HDAC-Glo™ I/II Assay and Screening System (Promega) was used to determine the HDAC inhibitory activity. Recombinant human HDAC1, HDAC2, HDAC3, HDAC4, HDAC6 and HDAC8 were purchased from BPS Bioscience Inc. The inhibitory activities of the test compounds against recombinant HDAC were performed according to reagent suppliers' protocols.
(§3) All test compounds were firstly dissolved in DMSO to make 10 mM stock solution. A certain amount of stock solution was diluted to 1 mM by DMSO and then reduced by tris(2-carboxyethyl)phosphine hydrochloride (TCEP) in a molar ration of 1:1.5 for 20 min at ambient temperature prior to being assayed. After reduction, a series of fivefold dilutions of each reduced compound were prepared with HDAC-Glo buffer and 25 μL of each dilution was added into a well on a 96-well plate. HDAC enzymes were diluted to the desired concentrations with HDAC-Glo buffer and 25 μL of each diluted enzyme was dispensed into a well to mix with 25 μL of testing compound at room temperature for 30-60 seconds. After the reaction mixture had been incubated at room temperature for 1 hour, 50 μL of HDAC-Glo reagent was added to each reaction well and mixed up for 30-60 seconds. Finally, the plate was incubated at room temperature for an additional 30 minutes before the luminescence was measured on a Synergy HT plate reader (Bio-Tek). The luminescence intensity data were analyzed using GraphPad Prism 5 (GraphPad Software). In the absence of any test compound, the luminescence intensity (I100) in each data set was defined as 100% activity. In the absence of both of HDAC enzymes and test compound, the luminescence intensity (I0) in each data set was defined as 0% activity. The relative activity (%) in the presence of each compound was calculated according to the following equation: % activity=(I−I0)/(I100−I0), where I=the luminescence intensity if a compound is present in the reaction. Experiments were performed in triplicate and the calculated mean values were used for plotting.

[2] = molecular target: T2, Recombinant human HDAC2 (Homo sapiens, UniProt Q92769); test: HDAC-Glo I/II assay, HDAC2; format: biochemical; settings: Class I HDAC; compounds reduced by TCEP prior to assay
T2 construct: purchased BPS Bioscience Inc
T2 sequence (Q92769 whole entry): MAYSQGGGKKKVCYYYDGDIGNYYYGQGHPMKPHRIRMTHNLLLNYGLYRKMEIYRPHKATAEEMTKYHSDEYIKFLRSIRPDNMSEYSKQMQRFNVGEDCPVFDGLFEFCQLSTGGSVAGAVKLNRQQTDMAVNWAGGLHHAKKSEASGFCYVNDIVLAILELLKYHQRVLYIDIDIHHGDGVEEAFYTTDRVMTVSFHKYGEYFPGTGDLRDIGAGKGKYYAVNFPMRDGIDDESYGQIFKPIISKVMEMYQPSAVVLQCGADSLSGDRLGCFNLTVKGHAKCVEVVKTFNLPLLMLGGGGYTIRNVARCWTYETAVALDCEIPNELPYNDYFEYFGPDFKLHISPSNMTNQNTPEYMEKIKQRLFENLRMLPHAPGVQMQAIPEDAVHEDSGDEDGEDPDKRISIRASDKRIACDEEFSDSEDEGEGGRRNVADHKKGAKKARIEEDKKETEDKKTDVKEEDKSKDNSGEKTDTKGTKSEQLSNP
Experimental: as §1, §2, §3

[3] = molecular target: T3, Recombinant human HDAC3 (Homo sapiens, UniProt O15379); test: HDAC-Glo I/II assay, HDAC3; format: biochemical; settings: Class I HDAC; compounds reduced by TCEP prior to assay
T3 construct: purchased BPS Bioscience Inc
T3 sequence (O15379 whole entry): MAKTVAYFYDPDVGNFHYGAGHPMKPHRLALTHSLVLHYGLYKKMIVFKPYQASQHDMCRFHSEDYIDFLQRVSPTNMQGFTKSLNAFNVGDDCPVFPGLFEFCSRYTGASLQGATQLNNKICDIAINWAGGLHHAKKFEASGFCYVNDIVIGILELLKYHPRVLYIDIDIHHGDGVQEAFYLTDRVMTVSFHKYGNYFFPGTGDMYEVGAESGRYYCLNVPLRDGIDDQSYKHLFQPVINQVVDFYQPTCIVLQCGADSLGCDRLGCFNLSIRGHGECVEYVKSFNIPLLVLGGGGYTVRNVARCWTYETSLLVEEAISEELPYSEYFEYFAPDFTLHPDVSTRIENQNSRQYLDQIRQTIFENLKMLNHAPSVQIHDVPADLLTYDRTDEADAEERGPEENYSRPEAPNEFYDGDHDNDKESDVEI
T3 sequence (Q9Y618 395-489 partner limits assumed): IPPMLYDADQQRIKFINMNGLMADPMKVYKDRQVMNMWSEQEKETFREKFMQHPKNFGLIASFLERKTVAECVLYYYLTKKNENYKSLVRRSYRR
Experimental: as §1, §2, §3

[4] = molecular target: T4, Recombinant human HDAC8 (Homo sapiens, UniProt Q9BY41); test: HDAC-Glo I/II assay, HDAC8; format: biochemical; settings: Class I HDAC; compounds reduced by TCEP prior to assay
T4 construct: purchased BPS Bioscience Inc
T4 sequence (Q9BY41 1-377): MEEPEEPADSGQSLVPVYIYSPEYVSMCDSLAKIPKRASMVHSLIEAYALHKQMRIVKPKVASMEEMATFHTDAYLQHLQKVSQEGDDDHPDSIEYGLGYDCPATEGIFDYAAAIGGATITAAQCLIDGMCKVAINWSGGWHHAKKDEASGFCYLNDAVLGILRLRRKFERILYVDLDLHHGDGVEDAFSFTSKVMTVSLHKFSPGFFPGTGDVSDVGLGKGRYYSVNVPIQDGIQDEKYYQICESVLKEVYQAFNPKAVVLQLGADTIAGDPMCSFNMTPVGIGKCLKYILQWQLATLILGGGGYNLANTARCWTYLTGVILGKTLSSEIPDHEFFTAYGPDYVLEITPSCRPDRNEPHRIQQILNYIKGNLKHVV
Experimental: as §1, §2, §3

[5] = molecular target: T5, Recombinant human HDAC4 (Homo sapiens, UniProt P56524); test: HDAC-Glo I/II assay, HDAC4; format: biochemical; settings: Class IIa HDAC; compounds reduced by TCEP prior to assay; read-out: IC50 of HDAC4
T5 construct: purchased BPS Bioscience Inc
T5 sequence (P56524 whole entry): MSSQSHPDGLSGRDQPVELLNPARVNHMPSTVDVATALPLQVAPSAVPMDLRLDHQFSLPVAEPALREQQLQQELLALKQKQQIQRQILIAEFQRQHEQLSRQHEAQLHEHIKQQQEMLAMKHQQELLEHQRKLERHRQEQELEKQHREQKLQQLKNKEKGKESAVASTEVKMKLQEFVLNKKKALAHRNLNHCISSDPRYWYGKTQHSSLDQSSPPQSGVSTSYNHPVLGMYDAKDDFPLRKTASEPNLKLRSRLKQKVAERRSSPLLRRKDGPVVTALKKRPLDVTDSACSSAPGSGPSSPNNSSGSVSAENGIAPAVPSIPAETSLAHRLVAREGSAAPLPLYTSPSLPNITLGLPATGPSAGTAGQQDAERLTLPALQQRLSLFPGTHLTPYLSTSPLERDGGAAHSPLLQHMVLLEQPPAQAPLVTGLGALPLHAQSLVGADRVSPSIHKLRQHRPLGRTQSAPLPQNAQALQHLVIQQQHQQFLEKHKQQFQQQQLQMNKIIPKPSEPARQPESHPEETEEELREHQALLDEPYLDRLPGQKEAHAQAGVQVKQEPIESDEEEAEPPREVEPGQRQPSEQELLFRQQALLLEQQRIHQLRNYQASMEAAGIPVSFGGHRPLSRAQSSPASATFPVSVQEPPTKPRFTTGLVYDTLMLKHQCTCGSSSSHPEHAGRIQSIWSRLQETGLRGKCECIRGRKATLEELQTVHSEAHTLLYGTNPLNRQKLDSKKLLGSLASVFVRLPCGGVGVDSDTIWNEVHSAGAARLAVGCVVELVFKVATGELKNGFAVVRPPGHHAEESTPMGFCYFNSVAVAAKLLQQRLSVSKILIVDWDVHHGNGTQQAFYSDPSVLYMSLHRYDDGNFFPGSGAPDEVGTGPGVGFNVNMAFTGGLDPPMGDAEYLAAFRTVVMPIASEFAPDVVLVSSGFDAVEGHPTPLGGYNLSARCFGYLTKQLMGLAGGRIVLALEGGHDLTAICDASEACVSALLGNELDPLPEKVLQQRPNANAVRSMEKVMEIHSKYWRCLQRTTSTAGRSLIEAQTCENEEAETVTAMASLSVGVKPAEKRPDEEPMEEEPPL
Experimental: as §1, §2, §3

[6] = test system: HCT-116 (colon cancer); test: MTT antiproliferative assay, HCT-116; format: cell-based; settings: Homo sapiens, HCT-116; MTT, 48 h; read-out: Antiproliferative Activity GI50, Colon HCT-116
Experimental: (§4) Briefly, the tumor cells (1×10^4 cells/well) were seeded in 96-well microtiter plates and incubated for 24 h at 37° C. Following incubation, the media was replaced with fresh media containing the above compounds at concentrations ranging from 1 μM to 1 pM diluted in DMSO and incubated for an additional 48 h. Drugs were run in duplicate or triplicate and control cells received fresh media with DMSO concentration equivalent to the treatment groups. […] After aspirating the culture medium, 200 μL of DMSO was added to dissolve the precipitate and the resulting solution was measured for absorbance at 570 nm with a reference wavelength of 690 nm using a microplate reader (Infinite M200 Pro TECAN).

[7] = test system: HeLa (cervical cancer); test: MTT antiproliferative assay, HeLa; format: cell-based; settings: Homo sapiens, MTT, 48 h, read-out: Antiproliferative Activity GI50, Cervical HeLa
Experimental: as §4

[8] = test system: RFX393 (renal); test: MTT antiproliferative assay, RFX393; format: cell-based; settings: MTT, 48 h; read-out: Antiproliferative Activity GI50, Renal RFX393
Experimental: as §4

[9] = test system: SKOV-3 (ovarian); test: MTT antiproliferative assay, SKOV-3; format: cell-based; settings: Homo sapiens, SK-OV-3; MTT, 48 h; read-out: Antiproliferative Activity GI50, Ovarian SKOV-3
Experimental: as §4

[10] = test system: DU-145 (prostate cancer); test: MTT antiproliferative assay, DU-145; format: cell-based; settings: Homo sapiens, DU-145; MTT, 48 h; read-out: Antiproliferative Activity GI50, Prostate DU-145
Experimental: as §4

[11] = test system: MDA-MB-231 (breast cancer); test: MTT antiproliferative assay, MDA-MB-231; format: cell-based; settings: Homo sapiens, MDA-MB-231; MTT, 48 h; read-out: Antiproliferative Activity GI50, Breast MDA-MB-231
Experimental: as §4

[12] = test system: COLO-205 (colon cancer); test: MTT antiproliferative assay, COLO-205; format: cell-based; settings: Homo sapiens, COLO 205; MTT, 48 h; read-out: Antiproliferative Activity GI50, Colon COLO-205
Experimental: as §4

[13] = in vivo; settings: BALB/c, mouse, in vivo, ip
From the text: BALB/c mice were purchased from The Jackson Laboratory (Bar Harbor, Me.) and used between 7 and 10 weeks of age. Mice were housed in a conventional animal vivarium and were given free access to food and water. All studies and procedures were approved by the Animal Care and Use Committee of the University of Wisconsin, Milwaukee.
Each animal was initially weighed using a digital scale and then intraperitoneally (IP) injected with the compounds (listed in Table 2). A single mouse was given a single IP dose of 200 mg/kg, body weight, a second mouse received a dose of 100 mg/kg and a third mouse received a single dose of 50 mg/kg. The mice were observed and weighed every other day for a period of 2 weeks. They were euthanized if they lost more than 20% of their body weight or if there were other signs of significant toxicity. […] This process was repeated until a tolerated dose was found, and the MTD value was determined.
To determine the MTD in vivo, the compounds listed above were injected intraperitoneally into BALB/c mice and morbidity and mortality were monitored over two weeks.

[14] = 10 mg/mL cpd in 20% DMSO/saline
[15] = test system: colon (HCT-116), cervical (HeLa), and renal (RFX393) tumor cell lines; test: MTT antiproliferative assay, all three tumor cell lines; format: cell-based; settings: HCT-116, HeLa, RFX393; summary of Table 3; read-out: GI50 values against all three tumor cell lines
Experimental: as §4

T1 sequence (Q13547 whole entry): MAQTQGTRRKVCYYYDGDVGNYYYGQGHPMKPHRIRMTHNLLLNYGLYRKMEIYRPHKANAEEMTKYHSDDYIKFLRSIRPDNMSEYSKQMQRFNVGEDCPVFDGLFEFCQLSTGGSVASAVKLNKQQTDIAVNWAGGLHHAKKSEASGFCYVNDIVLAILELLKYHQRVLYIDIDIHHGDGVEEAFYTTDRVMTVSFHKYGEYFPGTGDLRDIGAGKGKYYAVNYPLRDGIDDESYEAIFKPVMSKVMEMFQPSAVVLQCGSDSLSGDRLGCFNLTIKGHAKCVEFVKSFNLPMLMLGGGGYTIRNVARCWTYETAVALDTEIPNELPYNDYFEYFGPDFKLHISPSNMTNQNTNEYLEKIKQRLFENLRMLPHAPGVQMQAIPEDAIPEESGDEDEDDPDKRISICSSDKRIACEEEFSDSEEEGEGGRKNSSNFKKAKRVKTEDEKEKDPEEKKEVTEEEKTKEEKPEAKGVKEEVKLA

CCC(C)[C@H]1NC(=O)[C@H]2CSSCC/C=C/[C@H](CC(=O)N[C@H](CCSC)C(=O)N2)OC(=O)C[C@@H]1OC(=O)c1ccccc1 (stereo partly drawn) [TDC1]
IC50 [1]: 0.0109 µM | Class I selectivity Ratio HDAC 1/HDAC8 [1]: 0.00252 | Class I vs. Class IIa Ratio HDAC 1/HDAC6 [1]: 0.0020 | IC50 [2]: 0.051 µM | IC50 [3]: 0.64 µM | IC50 [4]: 3.67 µM | IC50 [5]: ~500 µM | GI50 [6]: 0.0247 µM | GI50 [7]: 0.225 µM | GI50 [8]: 0.0351 µM | GI50 [9]: 0.03 µM | GI50 [10]: 0.08 µM | GI50 [11]: 0.04 µM | GI50 [12]: 0.07 µM | MTD at 2 weeks [13]: 50 mg/kg | Solubility [14]: Not soluble

CCC(C)[C@H]1NC(=O)[C@H]2CSSCC/C=C/[C@H](CC(=O)N[C@H](CCSC)C(=O)N2)OC(=O)C[C@@H]1OCCC=O (stereo partly drawn) [TDC2]
IC50 [1]: 0.0096 µM | Class I selectivity Ratio HDAC 1/HDAC8 [1]: 0.00096 | Class I vs. Class IIa Ratio HDAC 1/HDAC6 [1]: 0.0064 | IC50 [2]: 0.037 µM | IC50 [3]: 0.701 µM | IC50 [4]: 4.33 µM | IC50 [5]: 135 µM | GI50 [6]: 0.056 µM | GI50 [7]: 0.141 µM | GI50 [8]: 0.051 µM | MTD at 2 weeks [13]: 12.5 mg/kg | Solubility [14]: Not soluble

CCC(C)[C@H]1NC(=O)[C@H]2CSSCC/C=C/[C@H](CC(=O)N[C@H](CCSC)C(=O)N2)OC(=O)C[C@@H]1OC(C)=O (stereo partly drawn) [TDC3]
IC50 [1]: 0.0027 µM | Class I selectivity Ratio HDAC 1/HDAC8 [1]: 0.00006 | Class I vs. Class IIa Ratio HDAC 1/HDAC6 [1]: 0.0020 | IC50 [2]: 0.0442 µM | IC50 [3]: 0.245 µM | IC50 [4]: 10 µM | IC50 [5]: 40.5 µM | GI50 [6]: 0.12 µM | GI50 [7]: 0.332 µM | GI50 [8]: 0.107 µM | MTD at 2 weeks [13]: > 200 mg/kg | Solubility [14]: Not soluble

CCC(C)C(NC(=O)CC(O)/C=C/CCS)C(=O)O (stereo not drawn) [TDF4]
IC50 [1]: 0.0039 µM | IC50 [3]: 0.714 µM | IC50 [4]: 43.9 µM | IC50 [5]: > 1000 µM | GI50 [6]: 3.7 µM | GI50 [7]: 4.8 µM | GI50 [8]: 4.1 µM | MTD at 2 weeks [13]: > 200 mg/kg | GI50 [15]: ≤ 5 µM | Solubility [14]: Mostly soluble

CC(C)[C@H](NC(=O)CC(O)/C=C/CCS)C(=O)O (stereo partly drawn) [TDF6]
IC50 [1]: 0.0035 µM | Class I selectivity Ratio HDAC 1/HDAC8 [1]: 0.00003 | IC50 [2]: 0.111 µM | IC50 [3]: 0.0416 µM | IC50 [4]: 16.6 µM | IC50 [5]: > 1000 µM | GI50 [6]: 1.3 µM | GI50 [7]: 3.6 µM | GI50 [8]: 3.1 µM | MTD at 2 weeks [13]: > 200 mg/kg | GI50 [15]: ≤ 4 µM | Solubility [14]: Soluble

CCC(C)[C@H]1NC(=O)[C@H]2CSSCC/C=C/[C@H](CC(=O)N[C@H](CCSC)C(=O)N2)OC(=O)C[C@@H]1O (stereo partly drawn) [TDP-A, Thailandepsin A, reference compound]
IC50 [1]: 0.0024 µM | Class I selectivity Ratio HDAC 1/HDAC8 [1]: 0.00065 | Class I vs. Class IIa Ratio HDAC 1/HDAC6 [1]: 0.0088 | IC50 [2]: 0.0081 µM | IC50 [3]: 0.0077 µM | IC50 [4]: 8.44 µM | IC50 [5]: 20.5 µM | GI50 [6]: 0.00093 µM | GI50 [7]: 0.00036 µM | GI50 [8]: 0.00047 µM | GI50 [9]: 0.002 µM | GI50 [10]: 0.001 µM | GI50 [11]: 0.003 µM | GI50 [12]: 0.0035 µM | MTD at 2 weeks [13]: 6.25 mg/kg | Solubility [14]: Not soluble

CCCC[C@H]1NC(=O)C[C@H]2/C=C/CCSSC[C@@H](NC1=O)C(=O)N[C@H](C(C)CC)[C@@H](O)CC(=O)O2 (stereo partly drawn) [TDP-B, Thailandepsin B, reference compound]
IC50 [1]: 0.0022 µM | Class I selectivity Ratio HDAC 1/HDAC8 [1]: 0.00026 | Class I vs. Class IIa Ratio HDAC 1/HDAC6 [1]: 0.0034 | IC50 [2]: 0.0256 µM | IC50 [3]: 0.0482 µM | IC50 [4]: 10.9 µM | IC50 [5]: 27.9 µM | GI50 [6]: 0.002 µM | GI50 [7]: 0.0021 µM | GI50 [8]: 0.0022 µM | MTD at 2 weeks [13]: 6.25 mg/kg | Solubility [14]: Not soluble

Reference: patent publication US11149062B2, “HDAC inhibitors and methods of treatment using the same” (UWM Research Foundation, Inc., priority 2015, dated 2021)
